The values that follow come from patent EP1547597A2, “Use of adatanserin for the treatment of neurodegenerative conditions” (Wyeth, priority 1999, dated 2001).

This assay relates to rat hippocampal slices. The assay is described as follows: Reduction of azide-induced ischemic efflux of glutamate in rat hippocampal slices. It counts as cell-based. The settings on record: versus control, statistically significant, read-out: reduction of glutamate release (azide-induced ischemic efflux of glutamate). How it is done: Adatanserin was evaluated for its ability to reduce the azide-induced ischemic efflux of glutamate in rat hippocampal slices. Three Krebs buffers were used in the experiments. Normal Krebs buffer consisted of a solution containing the following: (122 mM NaCl, 3 mM KCl, 24 mM NaHCO3, 10 mM glucose, 0.315 mM K2HPO4, 1.2 mM MgSO4, 4 mM CaCl2). Aglycemic Krebs buffer was similar to the normal buffer with the exception that glucose was not added. Ischemic Krebs buffer was the aglycemic solution which contained varying concentrations of sodium azide (0 - 30 mM).
Rat hippocampi were dissected on a cold platform and suspended in ice cold oxygenated normal Krebs buffer. The tissue was cross-chopped at 350 microns on a Mcllwain tissue chopper, then resuspended and washed three times with ice cold normal Krebs buffer. […] Amino acid concentrations were analyzed with reverse phase HPLC on a catacholamine column (Keystone Scinetific, 150 x 3 mm) employing an 0.05 M acetate/methanol gradient. […] Amino acids were visualized by derivatization with naphthalene-2,3-dicarboxaldehyde and fluorimetric detection (Dawson, L. A. et al., Improved Temporal Resolution of Microdialysis Measurement of Glutamate and Aspartate Using Capillary Electrophoresis with Laser Induced Fluorescence Detection. J. Chromatogr. B 1997, 694, 1204-1212). […]

As for `O=C(NCCN1CCN(c2ncccn2)CC1)C12CC3CC(CC(C3)C1)C2` [adatanserin, N-[2-[4-(2-pyrimidinyl)-1-piperazinyl]ethyl]tricyclo[3.3.1.13,7]decane-1-carboxamide], where the note is “adatanserin 100 nM”, the inhibition at 0.1 µM was determined as 72%. In addition, for the setting “adatanserin 1000 nM (1 µM)”, the inhibition at 1 µM came out at 71%.
